From patent publication US8586548B2, “NAP alpha-aminoisobutyric acid analog with neuroprotective activity” (Ramot at Tel-Aviv University, Ltd., priority 2009, dated 2013) come the findings set out here.

The subject of test [1] is cerebral cortical cultures derived from newborn rats. In words: Neuronal survival in cerebral cortical cultures treated with beta-amyloid peptide (1-42). The following applies: for protection of neurons against neurotoxicity of beta-amyloid peptide 1-42 (neuronal cell numbers): 2.5 μM beta-amyloid peptide (1-42), peptide 10^−16M to 10^−10M, p<0.001, FIG. 1; for neuroprotective activity compared with unmodified NAP: FIG. 1 compared with FIG. 2, 2.5 micromolar beta amyloid peptide. The class given is cell-based, rat. How it is done: All peptides were dissolved in distilled sterile water to a concentration of 1 mM and then diluted in water in 1:10 steps up to the required concentration. The beta-amyloid peptide (1-42) was obtained from American Peptides, Calif., USA.
Cerebral cortical cultures derived from newborn rats were used for neuron survival assays. For mixed neuroglial cultures, neurons 300,000 cells/35 mm dish were seeded on 8-day-old astrocytes prepared as described (Bassan et al., supra (1999); Brenneman et al., supra (2004)). Cells were allowed to grow for one week at 37° C. 10% CO2 before experiments were performed. Four days after neuronal plating, cultures were given their respective treatment and assayed for neuronal survival after an additional 5 day incubation period.
The culture medium was removed and cells were washed twice with phosphate buffered saline (PBS). 1.5 ml of 3% glutaraldehyde (Fluka Biochemika, Steinheim, Germany) in 0.1 M cacodylic acid pH 7.2 (Fluka Biochemika, Steinheim, Germany) was added for two hours. The cells were then washed with PBS and 2 ml of 0.15 M cacodylic acid pH 7.2 was added. Neuronal identity was established by morphological criteria using an Olympus CK2 light microscope (Olympus, Japan) with a X40 lens. Fifty fields were counted in each dish (Zemlyak et al., supra (2000)).
The number of surviving neurons was assessed in cerebral cortical cultures derived from newborn rats using the beta-amyloid peptide (1-42), an Alzheimer's disease-associated toxin, at 2.5 μM. Alpha-aminoisobutric NAP was used at the following concentrations: 10^−16M, 10^−15M, 10^−12M, 10^−10M. […] Cell counts totaled>100% of control, because the treatment prevents neuronal cell death that occurred naturally in the cultures (10-20%), as observed before (Bassan et al., supra (1999)). […] This is an unexpected finding in view of previous reports that describe the SIP motif as essential for NAP neuroprotection (Wilkemeyer et al., Proc Natl Acad Sci USA, 100(14):8543-8 (2003)).

In test [2] the test system is ADNP heterozygous male mice. Kind of test: Passive avoidance test. The class given is in vivo, mouse. How it is done: The heterozygous ADNP mice were generated as before (Pinhasov et al., Brain Res. Dev. Brain Res. 2003, 144:83-90; and Vulih-Shultzman et al., J Pharmacol Exp Ther. 2007, 323(2):438-49). To avoid any variability in results associated with the estrous cycle in females, only ADNP^+/− male mice are use for behavioral experiments.
Iso-NAP (NAXaaVSIXaaQ; SEQ ID NO:1) was dissolved in a vehicle solution, in which each milliliter included 7.5 mg of NaCl, 1.7 mg of citric acid monohydrate, 3 mg of disodium phosphate dihydrate, and 0.2 mg of benzalkonium chloride solution (50%). Iso-NAP or vehicle solution (DD) was administered to mice handheld in a semi-supine position with nostrils facing the investigator. A pipette tip was used to administer 2.5 μl/each nostril. The mouse was handheld until the solution is entirely absorbed. Nasal Iso-NAP application was performed daily, once a day, for 2 weeks for the Morris water maze test. In the 2nd week, Iso-NAP was applied 1 h before the daily test (see below), which was conducted for 5 consecutive days. In the passive avoidance test, all mice were treated for a total of 7 days, on the 7th day of treatment the test began. Iso-NAP was applied 1 h before the test.
The passive avoidance task is a fear-motivated avoidance task based on the mouse conflict between avoiding the light stimulus and approaching the dark chamber in which a painful shock is given. The mouse learns to refrain from stepping through a door to an apparently safer but previously punished dark compartment. The latency to refrain from crossing into the punished compartment serves as an index of the ability to avoid, and allows memory to be assessed (Johns Hopkins University, Department of Psychological and Brain Sciences, website: nbc.jhu.edu/protocols/PassiveAvoidanceProtocol.aspx). […]
The experiment is carried out for three days. […] The time to enter the dark compartment is recorded. […] The door is opened after 30 seconds, and the time it takes the mouse to enter the dark chamber is recorded. […] After 30 seconds (T0), the door is opened and the latency to enter the dark chamber is recorded. […]

Where [3] appears, read: listed as Alpha-aminoisobutric NAP.

Non-standard residues stand in square brackets, D forms with d. No end group written: not given here. Aib = CC(C)(N)C(=O)O

Turning to “NAXaaVSIXaaQ (NA[Aib]VSI[Aib]Q) [Alpha-aminoisobutyric NAP, both prolines of NAP substituted]”, the cell counts in test [1] (2.5 μM beta-amyloid peptide (1-42) plus peptide) was > 100 % of control. In addition, the “protection of neurons against neurotoxicity of beta-amyloid peptide 1-42 (neuronal cell numbers)” value in test [1] (setting [3]) was “protected against neurotoxicity associated with the beta-amyloid peptide 1-42”; in test [1] (listed as alpha-aminoisobutric NAP) it was “confers protection of neurons”. Moreover, the “neuroprotective activity compared with unmodified NAP” value is recorded as “increased neuroprotective activity” in test [1] and “increased activity” in test [1] (setting [3]). In addition, the “latency to enter the dark room at T0 and T30 vs T-trial” value in test [2] (2 μg/mice intranasal, P<0.05) is recorded as “entered the dark room significantly slower than on the T-trial”. Moreover, the “effect on learning and memory (conclusion)” value in test [2] (2 μg/mice, conclusion from Morris water maze and passive avoidance tests) was “seems to affect positively learning and memory”. Further, in test [2] (30 μg/mice intranasal), the “latency to enter the dark room” value is “entered the dark room faster than the NAP2 group”.
